BindingDB's records for patent US20250313563 (The Broad Institute, 2025)
pIC50: −log10 of the molar value. Several values for one entry are separate records, joined by “and”; a condition that tells them apart may be missing. Equal entries are not always repeated.

Legend:
[1] = molecular target: Glycogen synthase kinase-3 alpha (Homo sapiens, UniProt P49840); assay: TR-FRET Assay
How it was run: (§1)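 TR-FRET readout: streptavidin-d2 (40 nM in added detection mix) plus Tb-anti-pSer641 Ab (2 nM in mix). Steps were 30 min compound preincubation, kinase reaction, then EDTA stop.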

[2] = molecular target: Glycogen synthase kinase-3 beta (Homo sapiens, UniProt P49841); assay: TR-FRET Assay
How it was run: as §1

Chain of Glycogen synthase kinase-3 alpha (P49840 whole entry): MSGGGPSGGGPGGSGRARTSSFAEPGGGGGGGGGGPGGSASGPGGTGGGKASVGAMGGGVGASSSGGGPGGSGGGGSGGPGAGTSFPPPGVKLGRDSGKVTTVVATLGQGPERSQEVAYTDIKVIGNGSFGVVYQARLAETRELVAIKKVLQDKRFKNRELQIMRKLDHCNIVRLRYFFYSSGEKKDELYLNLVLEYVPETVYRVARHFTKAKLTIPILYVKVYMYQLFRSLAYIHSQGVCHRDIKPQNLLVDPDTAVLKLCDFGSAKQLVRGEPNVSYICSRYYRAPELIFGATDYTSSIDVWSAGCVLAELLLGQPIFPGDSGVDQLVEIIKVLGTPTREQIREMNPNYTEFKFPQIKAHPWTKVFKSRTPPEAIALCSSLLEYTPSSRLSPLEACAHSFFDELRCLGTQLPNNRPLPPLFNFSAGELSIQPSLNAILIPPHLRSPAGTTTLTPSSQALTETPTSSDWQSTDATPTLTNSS
Chain of Glycogen synthase kinase-3 beta (P49841 whole entry): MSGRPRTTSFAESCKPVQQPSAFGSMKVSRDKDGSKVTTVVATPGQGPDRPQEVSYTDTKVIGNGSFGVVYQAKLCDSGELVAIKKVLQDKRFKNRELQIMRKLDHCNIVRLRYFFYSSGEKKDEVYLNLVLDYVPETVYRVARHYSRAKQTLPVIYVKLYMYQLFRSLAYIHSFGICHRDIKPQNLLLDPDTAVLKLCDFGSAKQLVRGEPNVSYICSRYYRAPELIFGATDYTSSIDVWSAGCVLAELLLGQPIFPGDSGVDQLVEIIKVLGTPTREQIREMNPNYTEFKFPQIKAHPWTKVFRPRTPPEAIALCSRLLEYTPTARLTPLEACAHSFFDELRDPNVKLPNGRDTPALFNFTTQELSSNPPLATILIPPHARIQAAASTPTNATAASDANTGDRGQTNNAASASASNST

| Compound | pIC50 [1] | pIC50 [2] |
| --- | --- | --- |
| CCC1(c2cccc(-c3ccnc(C(F)(F)F)c3)c2)C2=C(CC(C)(C)CC2=O)NC2N=NC(C)=C21 (stereo unspecified) [US20250313563, Compound 883989] | > 7.00 | 6.00 to 7.00 |
| CCN(C(C)=O)c1cccc([C@]2(CC)C3=CN=NC3NC3=C2C(=O)CC(C)(C)C3)c1 (stereo partly specified) [US20250313563, Compound 909215] | 6.00 to 7.00 | 5.30 to 6.00 |
| CC[C@]1(c2cccc(-c3cn(C)nc3C)c2)C2=C(CC(C)(C)NC2=O)NC2N=NC(F)=C21 (stereo partly specified) [US20250313563, Compound 949176] | 5.30 to 6.00 | < 5.30 |
| CC[C@@]1(c2cccc(-c3ccnc4ccc(Cl)cc34)c2)C2=CN=NC2NC2=C1C(=O)N(C)C(C)(C)C2 (stereo partly specified) [US20250313563, Compound 948517] | > 7.00 | > 7.00 |
| CCC1(c2cccc(N(C)c3ccc(OC)nc3)c2)C2=CN=NC2NC2=C1C(=O)CC(C)(C)C2 (stereo unspecified) [US20250313563, Compound 913252] | 6.00 to 7.00 | 6.00 to 7.00 |
| CC[C@@]1(c2cccc(C(F)(F)F)c2)C2=C(CC(C)(C)NC2=O)NC2N=NC(F)=C21 (stereo partly specified) [US20250313563, Compound 957497] | < 5.30 | < 5.30 |
| Cc1cc(S(=O)(=O)N2CCC3(CC2)C2=C(N=NC2)NC2=C3C(=O)CC(C)(C)C2)c(C)s1 [US20250313563, Compound 945674] | > 7.00 | 6.00 to 7.00 |
| COc1ccc(S(=O)(=O)N2CCC3(CC2)C2=C(N=NC2)NC2=C3C(=O)CC(C)(C)C2)cc1F [US20250313563, Compound 947478] | > 7.00 | > 7.00 |
| CC[C@@]1(c2ccccc2)C2=CN=NC2NC2=C1C(=O)C[C@]1(CCNC1=O)C2 (stereo partly specified) [US20250313563, Compound 950160] | 5.30 to 6.00 | < 5.30 |
| CC[C@]1(c2cccc(N(C)c3ncccn3)c2)C2=C(CC(C)(C)NC2=O)NC2N=NC(Cl)=C21 (stereo partly specified) [US20250313563, Compound 951592] | < 5.30 | < 5.30 |
| CC[C@@]1(c2cccc(-c3cnnc(C)c3)c2)C2=CN=NC2NC2=C1C(=O)CC(C)(C)C2 (stereo partly specified) [US20250313563, Compound 943995] | 6.00 to 7.00 | < 5.30 |
| CC[C@@]1(c2cccc(C(F)(F)F)c2)C2=C(CCN(c3ccc(OC)cc3)C2=O)NC2N=NC(C)=C21 (stereo partly specified) [US20250313563, Compound 948226] | > 7.00 | 6.00 to 7.00 |
| CCC1(c2cccc(-c3cc(OC)ncc3F)c2)C2=CN=NC2NC2=C1C(=O)CC(C)(C)C2 (stereo unspecified) [US20250313563, Compound 932630] | > 7.00 | > 7.00 |
| CC[C@@]1(c2cccc(N(C)C(=O)c3cnn(C)c3)c2)C2=CN=NC2NC2=C1C(=O)CC(C)(C)C2 (stereo partly specified) [US20250313563, Compound 913310] | > 7.00 | > 7.00 |
| C[C@@H]1C[C@@]2(CCO1)C1=C(N=NC1)NC1=C2C(=O)CC(C)(C)C1 [US20250313563, Compound 899559] | 6.00 to 7.00 | 5.30 to 6.00 |
| CCC1(c2cccc(N3CCCC[C@@H]3C)c2)C2=CN=NC2NC2=C1C(=O)CC(C)(C)C2 (stereo partly specified) [US20250313563, Compound 885217] | 6.00 to 7.00 | 6.00 to 7.00 |
| CO[C@H]1CC[C@]2(CC1)C1=C(N=NC1)NC1=C2C(=O)CC(C)(C)C1 [US20250313563, Compound 884120] | 6.00 to 7.00 | 6.00 to 7.00 |
| CCC1(c2cccc(-c3ccnc(OC)c3)c2)C2=C(CC(C)(C)CC2=O)NC2N=NC(C)=C21 (stereo unspecified) [US20250313563, Compound 883985] | > 7.00 | 6.00 to 7.00 |
| CC1(C)CC(=O)C2=C(C1)NC1=C(CN=N1)[C@@]21COC2(CN(C(=O)[C@@H]3CC3(F)F)C2)C1 [US20250313563, Compound 948221] | 6.00 to 7.00 | 6.00 to 7.00 |

| Compound | pIC50 [1] | pIC50 [2] |
| --- | --- | --- |
| CC[C@]1(c2cc(-c3ccncc3)ccc2C)C2=CN=NC2NC2=C1C(=O)CC(C)(C)C2 (stereo partly specified) [US20250313563, Compound 893323] | 6.00 to 7.00 | 6.00 to 7.00 |
| CC[C@@]1(c2cccc(S(=O)(=O)C3CC3)c2)C2=CN=NC2NC2=C1C(=O)NC(C)(C)C2 (stereo partly specified) [US20250313563, Compound 945999] | > 7.00 | > 7.00 |
| CC1(C)CC(=O)C2=C(C1)NC1=C(CN=N1)C21CCC(C(=O)N2CCCC2)CC1 (stereo unspecified) [US20250313563, Compound 945396] | 6.00 to 7.00 | 6.00 to 7.00 |
| CCC1(c2cccc(N(C)c3cc(C)nc(C)c3)c2)C2=CN=NC2NC2=C1C(=O)CC(C)(C)C2 (stereo unspecified) [US20250313563, Compound 913256] | 5.30 to 6.00 | < 5.30 |
| CC[C@]1(c2cccc(OCC(F)F)c2)C2=CN=NC2NC2=C1C(=O)CC(C)(C)C2 (stereo partly specified) [US20250313563, Compound 949104] | > 7.00 | > 7.00 |
| CC[C@]1(c2cccc(-c3ccnc(C)c3)c2)C2=C(CC3(CCOCC3)NC2=O)NC2N=NC(C)=C21 (stereo partly specified) [US20250313563, Compound 948513] | > 7.00 | 6.00 to 7.00 |
| CC[C@]1(c2cccc(C(F)(F)F)c2)C2=CN=NC2NC2=C1C(=O)C[C@]1(CCNC1=O)C2 (stereo partly specified) [US20250313563, Compound 950333] | > 7.00 | 6.00 to 7.00 |
| CCC1(c2cccc(C(F)(F)F)c2)C2=C(CC(C)(C)CC2=O)NC2N=NC(Br)=C21 (stereo unspecified) [US20250313563, Compound 802358] | > 7.00 | > 7.00 |
| CC[C@@]1(c2cccc(-c3ccncc3C3CC3)c2)C2=CN=NC2NC2=C1C(=O)NC(C)(C)C2 (stereo partly specified) [US20250313563, Compound 950059] | > 7.00 and 6.00 to 7.00 | > 7.00 and 5.30 to 6.00 |
| CCC1(c2cccc(-c3c(C)nnn3C)c2)C2=C(N=NC2)NC2=C1C(=O)C(C)(C)C2 (stereo unspecified) [US20250313563, Compound 950815] | 6.00 to 7.00 | 5.30 to 6.00 |
| CC[C@@]1(c2cccc(C(F)(F)F)c2)C2=CN=NC2NC2=C1C(=O)C[C@]1(CCN(C)C1=O)C2 (stereo partly specified) [US20250313563, Compound 950325] | < 5.30 | < 5.30 |
| C[C@@H]1CC(=O)C2=C(C1)NC1=C(CN=N1)C21CCOCC1 [US20250313563, Compound 912079] | 6.00 to 7.00 | 6.00 to 7.00 |
| CC(C)[C@@H]1C[C@]2(CCO1)C1=C(N=NC1)NC1=C2C(=O)CC(C)(C)C1 [US20250313563, Compound 884013] | 5.30 to 6.00 | < 5.30 |
| CCC1(c2cccc(-c3ccnc(C(C)O)c3)c2)C2=CN=NC2NC2=C1C(=O)CC(C)(C)C2 (stereo unspecified) [US20250313563, Compound 944029] | > 7.00 | 6.00 to 7.00 |
| CC[C@@]1(c2cccc(-c3ccnn3C)c2)C2=CN=NC2NC2=C1C(=O)N[C@@]1(CCCOC1)C2 (stereo partly specified) [US20250313563, Compound 949115] | > 7.00 and 6.00 to 7.00 | > 7.00 and 5.30 to 6.00 |
| CC[C@]1(c2cccc(-c3cnn4c3CCCC4)c2)C2=C(CC(C)(C)NC2=O)NC2N=NC(C)=C21 (stereo partly specified) [US20250313563, Compound 947809] | 6.00 to 7.00 | 5.30 to 6.00 |
| CCC1(c2cccc(-c3ccnc(C(F)(F)F)c3)c2)C2=CN=NC2NC2=C1C(=O)CC(C)(C)C2 (stereo unspecified) [US20250313563, Compound 913350] | 6.00 to 7.00 and > 7.00 | > 7.00 and 6.00 to 7.00 |
| CCn1nccc1S(=O)(=O)N1CCC2(CC1)C1=C(N=NC1)NC1=C2C(=O)CC(C)(C)C1 [US20250313563, Compound 945664] | > 7.00 | > 7.00 |
| CC1(C)CC(=O)C2=C(C1)NC1=C(CN=N1)[C@]21COC2(CN(C(=O)C(F)(F)F)C2)C1 [US20250313563, Compound 948156] | > 7.00 | 6.00 to 7.00 |
